# Assay results: the supplement of paper PMC13380429
# ± gives the standard deviation of the averaged measurements.
# Assays:
# Details in all cases: 72 h
# Vero E6 [1] = assay: relative viability EC50 (midpoint between 100% and the lowest measured viability); higher = less toxic
# Caco-2 [2] = assay: as above
# HepG2 [3] = assay: as above
# U2OS [4] = assay: as above
# Calu-3 [5] = assay: as above
# Vero E6 [6] = assay: drug sensitivity score (DSS) for viability; higher = more toxic; extreme values may be limits of the assay
# Caco-2 [7] = assay: as above
# HepG2 [8] = assay: as above
# U2OS [9] = assay: as above
# Calu-3 [10] = assay: as above
# Vero E6 [11] = assay: cell viability relative to DMSO; higher = less toxic
# Caco-2 [12] = assay: as above
# HepG2 [13] = assay: as above
# U2OS [14] = assay: as above
# Calu-3 [15] = assay: as above
Structure (SMILES),relative viability EC50 (Vero E6 [1]) [µM],relative viability EC50 (Caco-2 [2]) [µM],relative viability EC50 (HepG2 [3]) [µM],relative viability EC50 (U2OS [4]) [µM],relative viability EC50 (Calu-3 [5]) [µM],drug sensitivity score (Vero E6 [6]),drug sensitivity score (Caco-2 [7]),drug sensitivity score (HepG2 [8]),drug sensitivity score (U2OS [9]),drug sensitivity score (Calu-3 [10]),cell viability (Vero E6 [11]; 1 nM) [%],cell viability (Vero E6 [11]; 10 nM) [%],cell viability (Vero E6 [11]; 100 nM) [%],cell viability (Vero E6 [11]; 1000 nM) [%],cell viability (Vero E6 [11]; 10000 nM) [%],cell viability (Caco-2 [12]; 1 nM) [%],cell viability (Caco-2 [12]; 10 nM) [%],cell viability (Caco-2 [12]; 100 nM) [%],cell viability (Caco-2 [12]; 1000 nM) [%],cell viability (Caco-2 [12]; 10000 nM) [%],cell viability (HepG2 [13]; 1 nM) [%],cell viability (HepG2 [13]; 10 nM) [%],cell viability (HepG2 [13]; 100 nM) [%],cell viability (HepG2 [13]; 1000 nM) [%],cell viability (HepG2 [13]; 10000 nM) [%],cell viability (U2OS [14]; 1 nM) [%],cell viability (U2OS [14]; 10 nM) [%],cell viability (U2OS [14]; 100 nM) [%],cell viability (U2OS [14]; 1000 nM) [%],cell viability (U2OS [14]; 10000 nM) [%],cell viability (Calu-3 [15]; 1 nM) [%],cell viability (Calu-3 [15]; 10 nM) [%],cell viability (Calu-3 [15]; 100 nM) [%],cell viability (Calu-3 [15]; 1000 nM) [%],cell viability (Calu-3 [15]; 10000 nM) [%]
Cc1onc(-c2ccccc2)c1C(=O)N[C@@H]1C(=O)N2[C@@H]1SC(C)(C)[C@@H]2C(=O)O [oxacillin],> 10,> 10,> 10,> 10,> 10,0,0,0,0,0,99.4,87.2,102,93.9,94,92.9,93.3,98.1,85.2,116,89.9,102,91.3,114,108,100,98.7,98,98.9,108,92.6,104,102,99.1,96.2
Cn1c(=O)cc(N2CCC[C@@H](N)C2)n(Cc2cc(F)ccc2C#N)c1=O [trelagliptin],> 10,> 10,> 10,> 10,> 10,0,0,0,0,0,102,98.4,99.2,103,98.2,101,98.9,92.3,104,95.6,96.7,99.1,88.3,96.5,88.8,104,95.6,96.6,95.1,106,98.9,110,105,102,107
CCN(CC)CCCCC1CCN(CC(=O)N2c3ccccc3C(=O)Nc3cccnc32)CC1 [AQ-RA741],> 10,> 10,> 10,> 10,> 10,0,0,0,0,0,102,106,96.7,97.8,95.9,101,90.9,98.2,86.4,97.1,100,102,102,101,90.1,97.1,96.3,105,98.6,104,105,94.7,108,109,96.4
COC(=O)C1=C(C)NC(C)=C(C(=O)OCCCN2CCC(c3ccccc3)(c3ccccc3)CC2)[C@@H]1c1cccc([N+](=O)[O-])c1 [dexniguldipine],2.39,2.01,3.26,2.61,3.03,4.2,4.65 ± 0.49,4.5 ± 0.14,5.3 ± 2.3,4.95 ± 1.8,94 ± 1.9,99.7 ± 2.5,95 ± 3.6,94.35 ± 0.92,39.5 ± 2.3,99.8 ± 0.28,100 ± 0.71,97.7 ± 7.6,91.4 ± 0.42,40.8 ± 7.7,102 ± 14,101 ± 3.4,94.7 ± 3.8,102 ± 3,16.8 ± 2,102 ± 2.6,102 ± 2.5,100.8 ± 0.21,94.3 ± 7.8,20.8 ± 17,103.7 ± 0.42,94 ± 2.3,104.1 ± 0.71,99.2 ± 7.6,15.8 ± 14
NNc1nncc2ccccc12 [hydralazine],> 10,> 10,> 10,> 10,> 10,0,0,0,0,2.2,98.7,101,105,105,99.3,104,105,91.4,108,88.3,98.4,106,128,98.5,114,98.4,102,99.4,101,95.8,95,102,89,85.3,85
O.O=[Si]=O.O=[Si]=O.O=[Si]=O.O=[Si]=O.[O]=[Mg].[O]=[Mg].[O]=[Mg] [Talc],> 10,> 10,> 10,> 10,> 10,0,0,0,0,0.2,95.7,104,103,97,103,97.2,102,94.7,101,90,106,95.1,106,95.4,96.7,96.7,98.3,95.9,100,95.3,87,98.1,89.8,107,81.3
CCOc1cc(C(=O)N2CCC(N3CCN(C)CC3)CC2)ccc1Nc1ncc2c(n1)N(C1CCCC1)c1ccccc1C(=O)N2C [XMD17-109],1.21,1.48,1.45,2.01,3.09,9.5,6.5,7.2,5.7,5.5,94.3,97.1,94.4,62.1,8.8,96.1,104,99,81.6,32,101,105,94.2,76.9,25.2,99.6,95.6,101,89.5,28.4,104,87.2,99,99,4.4
CC(=O)Oc1cc2c(s1)CCN(C(C(=O)C1CC1)c1ccccc1F)C2 (stereo not given) [prasugrel],> 10,> 10,> 10,> 10,> 10,0,0,0,0,0,100,93.6,96.2,96.2,93.2,102,101,93,105,94.1,105,95,106,103,93.3,104,98,102,97.9,98.8,101,103,102,97.3,106
CCN(CC)c1ccc(/C=N/NC(=O)c2ccc(O)cc2)cc1 [DY131],> 10,> 10,> 10,> 10,> 10,0,0,0.2,0,0,107,98.3,101,102,95.1,94.3,96.4,98.4,95.4,98.2,102,105,95.9,105,83.4,99.6,97.5,101,95.4,97.6,95.4,91.5,99.8,97.8,95.3
C[C@H](Oc1ccc(S(C)(=O)=O)cc1C(=O)N1CCN(c2ncc(C(F)(F)F)cc2F)CC1)C(F)(F)F [bitopertin],> 10,> 10,> 10,> 10,> 10,0,0,0,0,0,103,95.6,96.6,100,97.5,100,98.6,92.5,94.2,91.1,94.7,95.1,96.2,104,98.4,98.9,100,101,95.3,101,97.1,99,95.8,97.8,106
CN1CC(=O)NC1=N [creatinine],> 10,> 10,> 10,> 10,> 10,0,0,0,0,0.2,100,97,93.9,96.1,98.7,95.8,96.6,96.9,102,99.1,97.4,97.3,104,90.9,103,100,99.5,97.3,98.4,95.5,97.2,99.7,85,95.7,87.5
OC[C@H]1O[C@H](O[C@H]2O[C@H](CO)[C@@H](O)[C@H](O)[C@H]2O)[C@H](O)[C@@H](O)[C@@H]1O [cabaletta],> 10,> 10,> 10,> 10,> 10,0,0,0,0,0,110,94.3,104,105,99.5,112,112,83.7,97.7,94.5,130,110,115,110,98.2,99.1,103,104,107,106,96.2,105,97.2,109,96.3
